Entries after “also recorded” stand apart in the source; their conditions may differ. Where a name gives a salt, the structure may show the parent alone.
How the values were obtained:
healthy adult subjects [1] = experiment: Multiple ascending dose study: systolic BP, safety population; assay type: in vivo, human; conditions: Day 1 to Day 28; 2.0 mg for 21 days
Procedure: (§1) A randomized, double-blind, placebo-controlled, sequential, ascending, multiple dose study to assess the safety, tolerability, and pharmacokinetics of the L-arginine salt of Compound 1 administered to healthy adult subjects was conducted. This study was designed to evaluate the safety, tolerability, pharmacokinetics, and pharmacodynamics of the L-arginine salt of Compound 1.
(§2) Cohort 1 was dosed with 0.7 mg (by administering two 0.35 mg formulations) for 21 days. Cohort 2 was dosed with 1.35 mg (by administering both a 0.35 mg formulation and a 1 mg formulation) for 21 days. Cohort 3 was dosed with 2.0 mg for 21 days. Cohort 4 was dosed with 0.35 mg for 7 days and then with 2.0 mg for 14 days. Cohort 5 was dosed with 0.5 for 7 days and then with 3.0 mg (by administering both a 1 mg formulation and a 2 mg formulation) for 14 days.
(§3) The following safety assessments were conducted: physical examinations with ophthalmoscopy, clinical laboratory tests (serum chemistry, coagulation, and urinalysis), vital signs, continuous telemetry (12 lead ECG), safety ECGs, pulmonary function testing (PFT), serum protein electrophoresis (SPEP) and serum immunoelectrophoresis (IEP), and adverse event reporting.

healthy adult subjects [2] = experiment: Multiple ascending dose study: safety assessments and adverse events
Procedure: as §3

healthy adult subjects [3] = experiment: Multiple ascending dose study: QTc, safety population; assay type: in vivo, human; conditions: Day 1 to Day 23
Procedure: as §1, §2, §3

lymphocytes = experiment: Multiple ascending dose study: lymphocyte counts, safety population; assay type: in vivo, human; conditions: for Lymphocytes, On Treatment Mean / Lymphocytes, Percent Change from Baseline, Mean / Lymphocytes, Percent Change from Baseline, Median / Lymphocytes, Percent Change from Baseline, Min, Max: day 21
Procedure: as §1, §2

[4] = 0.35 mg for 7 days then 2.0 mg for 14 days
[5] = 0.5 mg for 7 days then 3.0 mg for 14 days

In the case of `O=C(O)C[C@H]1CCc2c1[nH]c1ccc(OCc3ccc(C4CCCC4)c(C(F)(F)F)c3)cc21` [L-arginine salt of Compound 1], the “Minimum Value for Post-dose Systolic BP, Change from Baseline, Median” value (healthy adult subjects [1]) is reported as −9.00 mmHg, the “Minimum Value for Post-dose Systolic BP, Change from Baseline, Min, Max” value (healthy adult subjects [1]) is reported as −18.00 to −4.00 mmHg and the “Minimum Value for Post-dose Systolic BP, On Treatment Mean” value (healthy adult subjects [1]) is reported as 90.80 mmHg. For the same molecule, the “Subjects with mildly abnormal reproducible (NCS) pulmonary function test findings (FEV1 below 80%, FVC) post-dose” value (healthy adult subjects [2]; 1.35 mg dose) was “One”, the “Subjects with mildly abnormal non-clinically significant post-treatment liver function tests (elevated ALT & AST <2× ULN)” value (healthy adult subjects [2]; 2mg group) was 1 subject and the “Subjects with new 1st degree atrioventricular block” value (healthy adult subjects [2]; 2mg group) was 1 subject. For the same molecule, the “Subjects with new 1st degree atrioventricular block” value (healthy adult subjects [2]; 0.5, 3 mg group) was 1 subject, the “Subjects with mildly abnormal non-clinically significant post-treatment liver function tests (elevated ALT & AST <2× ULN)” value (healthy adult subjects [2]; 0.5 escalating to 3 mg group) was 1 subject and the “Discontinuation due to an adverse event” value (healthy adult subjects [2]; multiple dose) was “No subjects were discontinued due to an adverse event”. The “Most common adverse events” value (healthy adult subjects [2]; multiple dose) was “contact dermatitis and leukopenia, followed by constipation, diarrhea, nausea, and abdominal pain”, the Ophthalmoscopy findings (healthy adult subjects [2]; multiple dose) was “No clinically significant change from baseline” and the “Severity of adverse events” value (healthy adult subjects [2]; multiple dose) was “majority of adverse events were mild”. The “Vital signs, ECGs, PFTs, ophthalmoscopy, clinical laboratory tests” value (healthy adult subjects [2]; multiple dose) was “no other clinically significant safety issues”, the SAEs or deaths (healthy adult subjects [2]; multiple dose, all dose levels) was “No SAEs or deaths” and the “Second degree heart block” value (healthy adult subjects [2]; multiple dose, all dose levels) was “No second degree heart block”. For the same molecule, the Tolerability (healthy adult subjects [2]; multiple dose, all dose levels (0.7 to 3.0 mg, 21 days)) was “tolerated at all dose levels; also recorded: well tolerated at all doses tested”, the “Maximum Value for Post-dose QTc, Change from Baseline, Mean” value (healthy adult subjects [3]; [4]) was −0.10 MS and the “Maximum Value for Post-dose QTc, Change from Baseline, Median” value (healthy adult subjects [3]; [4]) was 0.50 MS. For the same molecule, the “Maximum Value for Post-dose QTc, Change from Baseline, Min, Max” value (healthy adult subjects [3]; [4]) was −19.00 to 17.00 MS, the “Maximum Value for Post-dose QTc, On Treatment Mean” value (from here on “Maximum Value … On Treatment Mean”) (healthy adult subjects [3]; [4]) was 411.10 MS and the “Maximum Value for Post-dose QTc, Change from Baseline, Mean” value (healthy adult subjects [3]; [5]) was 5.60 MS. For the same molecule, the “Maximum Value for Post-dose QTc, Change from Baseline, Median” value (healthy adult subjects [3]; [5]) was 5.00 MS, the “Maximum Value for Post-dose QTc, Change from Baseline, Min, Max” value (healthy adult subjects [3]; [5]) was −5.00 to 15.00 MS and the “Maximum Value … On Treatment Mean” value (healthy adult subjects [3]; [5]) was 425.10 MS. For the same molecule, the “Maximum Value for Post-dose QTc, Change from Baseline, Mean” value (healthy adult subjects [3]; 0.7 mg for 21 days) was 3.60 MS, the “Maximum Value for Post-dose QTc, Change from Baseline, Median” value (healthy adult subjects [3]; 0.7 mg for 21 days) was 3.50 MS and the “Maximum Value for Post-dose QTc, Change from Baseline, Min, Max” value (healthy adult subjects [3]; 0.7 mg for 21 days) was −8.00 to 16.00 MS. For the same molecule, the “Maximum Value … On Treatment Mean” value (healthy adult subjects [3]; 0.7 mg for 21 days) was 418.40 MS, the “Maximum Value for Post-dose QTc, Change from Baseline, Mean” value (healthy adult subjects [3]; 1.35 mg for 21 days) was 8.20 MS and the “Maximum Value for Post-dose QTc, Change from Baseline, Median” value (healthy adult subjects [3]; 1.35 mg for 21 days) was 6.00 MS. For the same molecule, the “Maximum Value for Post-dose QTc, Change from Baseline, Min, Max” value (healthy adult subjects [3]; 1.35 mg for 21 days) was −5.00 to 25.00 MS, the “Maximum Value … On Treatment Mean” value (healthy adult subjects [3]; 1.35 mg for 21 days) was 423.60 MS and the “Maximum Value for Post-dose QTc, Change from Baseline, Mean” value (healthy adult subjects [3]; 2.0 mg for 21 days) was 4.00 MS. For the same molecule, the “Maximum Value for Post-dose QTc, Change from Baseline, Median” value (healthy adult subjects [3]; 2.0 mg for 21 days) was 4.50 MS, the “Maximum Value for Post-dose QTc, Change from Baseline, Min, Max” value (healthy adult subjects [3]; 2.0 mg for 21 days) was −8.00 to 13.00 MS and the “Maximum Value … On Treatment Mean” value (healthy adult subjects [3]; 2.0 mg for 21 days) was 421.20 MS. For the same molecule, the “Lymphocytes, On Treatment Mean” value (lymphocytes; [4]) was 0.62 10^3/μl, the “Lymphocytes, Percent Change from Baseline, Mean” value (lymphocytes; [4]) was −67.34% and the “Lymphocytes, Percent Change from Baseline, Median” value (lymphocytes; [4]) was −67.54%. For the same molecule, the “Lymphocytes, Percent Change from Baseline, Min, Max” value (“Lymphocytes, Percent Change … Max” below) (lymphocytes; [4]) was −77.27 to −57.14%, the “Lymphocytes, On Treatment Mean” value (lymphocytes; [5]) was 0.62 10^3/μl and the “Lymphocytes, Percent Change from Baseline, Mean” value (lymphocytes; [5]) was −66.16%. For the same molecule, the “Lymphocytes, Percent Change from Baseline, Median” value (lymphocytes; [5]) was −65.02%, the “Lymphocytes, Percent Change … Max” value (lymphocytes; [5]) was −85.19 to −53.85% and the “Lymphocytes, On Treatment Mean” value (lymphocytes; 0.7 mg for 21 days) was 1.06 10^3/μl. The “Lymphocytes, Percent Change from Baseline, Mean” value (lymphocytes; 0.7 mg for 21 days) was −41.03%, the “Lymphocytes, Percent Change from Baseline, Median” value (lymphocytes; 0.7 mg for 21 days) was −40.37% and the “Lymphocytes, Percent Change … Max” value (lymphocytes; 0.7 mg for 21 days) was −55.56 to −23.08%. For the same molecule, the “Lymphocytes, On Treatment Mean” value (lymphocytes; 1.35 mg for 21 days) was 0.89 10^3/μl, the “Lymphocytes, Percent Change from Baseline, Mean” value (lymphocytes; 1.35 mg for 21 days) was −53.43% and the “Lymphocytes, Percent Change from Baseline, Median” value (lymphocytes; 1.35 mg for 21 days) was −51.85%. The “Lymphocytes, Percent Change … Max” value (lymphocytes; 1.35 mg for 21 days) was −68.75 to −30.77%, the “Lymphocytes, On Treatment Mean” value (lymphocytes; 2.0 mg for 21 days) was 0.62 10^3/μl and the “Lymphocytes, Percent Change from Baseline, Mean” value (lymphocytes; 2.0 mg for 21 days) was −68.81%. For the same molecule, the “Lymphocytes, Percent Change from Baseline, Median” value (lymphocytes; 2.0 mg for 21 days) was −69.44%, the “Lymphocytes, Percent Change … Max” value (lymphocytes; 2.0 mg for 21 days) was −80.00 to −55.56% and the “Lymphocyte lowering, dose dependence” value (lymphocytes; multiple dose, 0.7 to 3.0 mg) was “dose-dependent effect on lymphocyte lowering with maximal effect at 2 mg dose”.

Reference: patent US12377071B2, “Methods of treating conditions related to the S1P1 receptor” (Arena Pharmaceuticals, Inc., priority 2015, dated 2025)
